# Key:
# [1] = tested on: cardiac action potentials in dogs; test: Canine cardiac action potentials by electrocardiography and telemetry; type: in vivo, dog; details: for QTc intervals: oral gavage, 1-6 hours post-dose, vs vehicle
# Excerpt: Surgical Implantation of the Telemetry Device and ECG Leads. Anesthesia is introduced to dogs. Balanced gaseous anesthesia is used throughout the surgical procedure. Once anesthetized, animals are shaved and surgically scrubbed, encompassing surgical sites of the right inguinal area, chest and right lateral abdomen. Throughout the surgical procedure, animals are monitored for continuous assessment of vital signs. An incision is made along the right medial thigh and the femoral artery exposed by blunt dissection. Another incision is made in the lateral lumbar area cranial to the iliac crest for a tunneling needle to be passed subcutaneously from the incision on the medial thigh to the lumbar incision. A blood pressure catheter is passed through the needle from the lumbar incision and the needle removed. The femoral artery is ligated distally and incised to insert a catheter that is advanced until the tip resided in the femoral artery/abdominal aorta. The catheter is then secured by ligation. The incision in the lumbar area is enlarged and a subcutaneous pocket created in the left dorsal lumbar area to hold the transmitter body. The transmitter (e.g., Data Sciences International, St Paul, Minn., USA) is inserted into the subcutaneous pocket and secured body. Electrocardiography (ECG) leads are positioned. The incision is closed. Postoperative recovery lasts, e.g., about 2 weeks during which supplemental analgesics/antibiotics are administered as needed. Once the postoperative recovery period is complete, the animal is examined for study acceptability by the staff veterinarian and the implanted transmitter signal verified.
# Study Design. […] ECGs, heart rate and arterial blood pressure data are recorded 1 hour prior to and then continuously for at least 6 hours following compound and/or vehicle administration. A blood sample for determination of compound plasma concentrations is collected from all subjects at approximately 6 h post-dose.
# ECG Analysis. An ECG waveform morphology assessment for the entire monitoring period is completed for each dog by a safety pharmacologist or veterinarian cardiologist. Standard ECG intervals (PR, RR, QRS and QT) are automatically measured by the data acquisition system and reported as, e.g., 10 min averages. The signals are collected with Data Sciences International Systems hardware. PR and QT manual overreads are conducted as appropriate. The manual measurements are completed from 50 mm s^−1 tracings at 30 min intervals. A mean of the three waveforms per time point are reported. QT intervals are corrected for heart rate (QTc) values by, e.g., using the formula by Funck-Bretano and Jaillon (1993).
# Statistical Analysis. […] Dose-level averages (and accompanying standard deviation (s.d.) of these baseline-adjusted 10 min averages are calculated across study animals. ANOVA (e.g., repeated measures ANOVA) are applied to these baseline-adjusted averages. Pairwise t-tests are applied within the ANOVA to identify the presence of significant differences of the dose levels relative to vehicle. These t-tests are performed at a 0.05/2=0.025 significance level, so that the overall error rate across the comparisons in a given interval are not higher than 0.05. ECG interval data (reported at 30 min intervals) are analyzed using, e.g., repeated-measures ANOVA techniques similar to the systemic blood pressure and heart rate data described above.
# [2] = tested on: gastric motility in canines; test: Antral manometry (gastric motility) in canines; type: in vivo, canine (hound dogs)
# Description: Two healthy female hound dogs (24-28 kg) were involved in this study. Animals were fed an ad libitum chow diet (LabDiet®). After an overnight fast, the dogs were anesthetized with Pentothal (sodium thiopental, 11 mg/kg IV; Abbott Laboratories, North Chicago, Ill.) and maintained on 2-4% isoflurane (Abbott Laboratories) in oxygen (1 L/min) carrier gases delivered from a ventilator after endotracheal intubation. A cannula was placed in the jejunum 20 cm distal to the pylorus for the assessment of antral motility. Dogs were allowed to recover in their individual cages for 2 weeks. All experiments were performed after the dogs were completely recovered from the surgical procedure. The study was performed according to the National Institutes of Health Guidelines on the use of laboratory animals and approved by the Animal Care and Use Committee of the University of Texas Medical Branch at Galveston, Tex. To investigate the effect of the drugs on antral manometry, the study of each drug dose was done on three randomized sessions on separate days following the consumption of one can of solid dog food: 1) a Control session: In which animals received the vehicle only; 2) Dose I session: in which the lower dose of the drug was used; and 3) Dose II session: in which the higher dose of the drug was used (please refer to table for drug doses). Drug administration was performed according to Table 4, below. Antral manometry was performed as follows. Following an overnight fast, an intraluminal water-perfused manometry catheter was inserted into the antrum through the jejunal cannula. Antral manometry recording was initiated after the consumption of one can of solid food and continued for 3 hours. The catheter contained 3 manometric sensors at a 1 cm interval. Dogs were given 10 minutes of accommodation, prior to the start of the recording. For data analysis, motility index (MI), defined as the integrated area (area under curve—AUC) between baseline and contractions per hour, was calculated. For statistical analysis, the Student's t-test was used for assessment of individual differences between groups (high dose, low dose of each drug) compared to control—Microsoft®Excel 2002). All values are expressed as mean±SEM. Significance was considered when p value was ≦0.05.
# hERG channel = hERG channel (Homo sapiens, UniProt Q12809); test: hERG voltage clamp assay in hERG-expressing cultured cells; type: cell-based; details: approximate, from voltage clamp data, read-out: concentration necessary to inhibit 50% of the tail currents mediated by hERG channels
# 5HT2 = test: Radioligand binding affinity, 5HT2
# [3] = tested on: gastric emptying in Sprague-Dawley rats; test: Solid gastric emptying in rodents; type: in vivo, rat
# Description: The animals received a standard laboratory rat chow and tap water ad libitum. The rats were around 400 g at 14 weeks age when used in gastric emptying study. Drugs: S-Carbidopa was purchased from Sigma (#: C1335). Stock solution of S-Carbidopa was prepared at 5 mg/ml using DMSO as solvent. 80 μl stock solution was further diluted into 1 ml distilled water to make 0.4 mg/ml. The effect of S-Carbidopa (1 mg/kg) on solid gastric emptying was studied. Procedures: Male SD rats were involved in this study. Rats were fasted in cages with metal wired mesh for 24 hours with free access to water; S-carbidopa (1 mg/kg) was administered to the rats by oral gavage. Control rats were not administered S-carbidopa. 15 minutes following administration, rats were given access to 2 g of rat chow pellets for ten minutes. All rats completely ingested the chow within the 10 minute time frame. Rats were sacrificed by sodium pentobarbital (100 mg/kg) overdose 90 min after feeding. The stomach was surgically isolated and removed. Gastric contents were recovered from the stomach, air dried for 48 hours and then weighed. Solid gastric emptying was calculated according to the following formula: Gastric emptying (%)=[1−(dried gastric content in g)/2 g]×100. All values are expressed as mean±SEM.
# α1 = test: Radioligand binding affinity, α1
# D3 = D3 (Homo sapiens, UniProt P35462); test: Radioligand binding affinity, D3
# Sequence of D3 (P35462 whole entry): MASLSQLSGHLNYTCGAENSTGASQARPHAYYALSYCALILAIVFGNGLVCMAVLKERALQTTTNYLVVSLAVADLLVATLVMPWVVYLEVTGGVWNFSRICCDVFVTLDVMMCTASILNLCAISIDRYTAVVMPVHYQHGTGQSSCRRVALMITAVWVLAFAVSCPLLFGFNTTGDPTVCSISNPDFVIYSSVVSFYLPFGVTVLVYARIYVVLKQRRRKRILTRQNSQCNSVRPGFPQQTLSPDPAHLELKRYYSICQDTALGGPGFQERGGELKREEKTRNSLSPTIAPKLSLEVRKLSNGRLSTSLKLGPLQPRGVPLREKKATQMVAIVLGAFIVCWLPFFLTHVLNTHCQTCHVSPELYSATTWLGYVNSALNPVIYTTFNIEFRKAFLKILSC
# Sequence of hERG channel (Q12809 whole entry): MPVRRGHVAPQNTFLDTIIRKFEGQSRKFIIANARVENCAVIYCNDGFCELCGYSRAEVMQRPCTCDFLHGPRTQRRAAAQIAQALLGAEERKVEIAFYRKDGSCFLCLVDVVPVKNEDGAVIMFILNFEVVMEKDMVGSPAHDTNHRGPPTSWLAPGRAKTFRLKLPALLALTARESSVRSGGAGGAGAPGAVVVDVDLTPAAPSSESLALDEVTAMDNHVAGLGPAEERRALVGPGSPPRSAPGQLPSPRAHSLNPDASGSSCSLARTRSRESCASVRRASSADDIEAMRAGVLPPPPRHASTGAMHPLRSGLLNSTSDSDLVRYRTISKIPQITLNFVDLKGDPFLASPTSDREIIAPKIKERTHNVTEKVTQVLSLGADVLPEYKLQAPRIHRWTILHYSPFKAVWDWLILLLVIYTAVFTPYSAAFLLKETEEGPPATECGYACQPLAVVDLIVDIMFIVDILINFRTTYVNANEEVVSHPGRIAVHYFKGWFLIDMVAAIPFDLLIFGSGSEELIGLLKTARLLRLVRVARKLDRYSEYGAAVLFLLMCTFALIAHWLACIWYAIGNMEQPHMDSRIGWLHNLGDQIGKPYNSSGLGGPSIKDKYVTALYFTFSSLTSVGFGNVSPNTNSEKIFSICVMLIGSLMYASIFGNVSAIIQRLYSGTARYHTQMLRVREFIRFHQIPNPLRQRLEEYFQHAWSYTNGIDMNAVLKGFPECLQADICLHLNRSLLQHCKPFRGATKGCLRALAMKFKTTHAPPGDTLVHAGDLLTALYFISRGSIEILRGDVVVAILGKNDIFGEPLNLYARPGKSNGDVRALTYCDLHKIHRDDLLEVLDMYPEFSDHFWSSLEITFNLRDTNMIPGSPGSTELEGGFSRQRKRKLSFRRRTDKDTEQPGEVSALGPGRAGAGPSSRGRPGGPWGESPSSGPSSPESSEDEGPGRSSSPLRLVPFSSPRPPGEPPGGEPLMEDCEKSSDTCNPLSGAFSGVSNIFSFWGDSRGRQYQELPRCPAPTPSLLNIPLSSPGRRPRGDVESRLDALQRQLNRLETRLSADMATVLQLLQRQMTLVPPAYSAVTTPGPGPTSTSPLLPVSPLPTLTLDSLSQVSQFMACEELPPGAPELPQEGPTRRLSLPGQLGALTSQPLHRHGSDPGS
SMILES,motor dysfunction [2],Ki (5HT2) [nM],Ki (α1) [nM],QTc intervals [1],IC50 (hERG channel) [nM],other results
"CS(=O)(=O)c1ccc2c(c1)N(CCCN1CCC(C(N)=O)CC1)c1ccccc1S2 [Metopimazine, 1-[3-[2-(methylsulfonyl)-10H-phenothiazin-10-yl]propyl]-piperidine-4-carboxamide]",no motor dysfunction was observed,15,1.9,no significant increases in QTc intervals,~3000,"overall increase in gastric emptying as compared to vehicle control ([3]; rats, pooling the 3 mg/kg and 10 mg/kg doses): about 20%"
CN(CCOc1ccc(NS(C)(=O)=O)cc1)CCc1ccc(NS(C)(=O)=O)cc1 [dofetilide],,,,QTc intervals are increased,,"incidence of ECG abnormalities ([1]; 0.3 mg/kg oral gavage): increases the incidence of premature ventricular contractions, T-wave abnormalities, and right bundle branch block"
"Cl.NCCc1ccc(O)c(O)c1 [dopamine hydrochloride, Dopamine hydrochloride]",,,,,,"motility index (MI), antral manometry ([2]; 50 mg/canine IV immediately before meal, all channels, p=0.06): decreased MI"

# More lines, main results first:
motor dysfunction [2],Ki (5HT2) [nM],Ki (α1) [nM],SMILES,QTc intervals [1],IC50 (hERG channel) [nM],other results
,370,210,"CS(=O)(=O)c1ccc2c(c1)N(CCCN1CCC(C(=O)O)CC1)c1ccccc1S2 [Metopimazine-Acid, metopimazine acid]",no significant increases in QTc intervals,> 10000,Ki (D3): > 100 nM
no motor dysfunction was observed,,,"C[C@@](Cc1ccc(O)c(O)c1)(NN)C(=O)O [S-Carbidopa, (25)-3-(3,4-dihydroxyphenyl)-2-hydrazino-2-methylpropanoic acid]",no significant increases in QTc intervals,,"motility index (MI), antral manometry ([2]; 1 mg/kg IV 15 min prior to meal, all three channels, p=0.05): robustly increased MI; motor dysfunction ([3]; rats administered carbidopa): no motor dysfunction was observed; solid gastric emptying compared to control rats ([3]; rats, initial results): improves solid gastric emptying"
